Test results reported in ChEMBL document CHEMBL1629525, “Synthesis and characterization of 1,3-dihydro-benzo[b][1,4]diazepin-2-one derivatives: Part 4. In vivo active potent and selective non-competitive metabotropic glutamate receptor 2/3 antagonists” (Bioorg Med Chem Lett, 2010).
≈ marks a conversion by molar mass, not a printed value. Each block holds one compound with its values, some of them ahead of it. Calls of active or inactive are those of the source. No cut-off for these calls is given here.

How the values were obtained:
[1] = molecular target: T1, Metabotropic glutamate receptor 2 (Rattus norvegicus, UniProt P31421); assay: Partial displacement of [3H]LY354740 from recombinant rat mGluR2
[2] = molecular target: T1, Metabotropic glutamate receptor 2; assay: Antagonist activity at recombinant rat mGluR2 expressed in forskolin-stimulated CHO cells assessed as inhibition of (1S,3R)-ACPD induced cAMP production; format: functional, cell-based
[3] = molecular target: T1, Metabotropic glutamate receptor 2; assay: Antagonist activity at rat mGluR2 receptor expressed in CHO cells assessed as inhibition of GIRK current; format: functional, cell-based
[4] = molecular target: Metabotropic glutamate receptor 3 (Rattus norvegicus, UniProt P31422); assay: Antagonist activity at rat mGluR3 receptor expressed in CHO cells assessed as inhibition of GIRK current; format: functional, cell-based
[5] = molecular target: Metabotropic glutamate receptor 2 (Homo sapiens, UniProt Q14416); assay: Antagonist activity at human mGluR2 receptor expressed in CHO cells assessed as inhibition of GIRK current; format: functional, cell-based
Cytochrome P450 3A4 = Cytochrome P450 3A4 (Homo sapiens, UniProt P08684); assay: Inhibition of CYP3A4; format: ADME
[6] = Thermodynamic solubility of the compound at pH 3; format: physicochemical; details: buffer
Liver microsomes = assay: Clearance in rat liver microsomes; format: ADME, Microsome
[7] = Half life in rat at 2.5 mg/kg, iv; format: ADME, organism-based; parameters: dose 2.5 mg/kg, route intravenous; details: in vivo
[8] = Volume of dustribution at steady state in rat at 2.5 mg/kg, iv; format: ADME, organism-based; parameters: dose 2.5 mg/kg, route intravenous; details: in vivo, read-out: Vdss
[9] = Clearance in rat at 2.5 mg/kg, iv; format: ADME, organism-based; parameters: dose 2.5 mg/kg, route intravenous; details: in vivo
[10] = Oral bioavailability in rat at 10 mg/kg, po; format: ADME, organism-based; details: in vivo
[11] = Ratio of drug level in brain to plasma in rat; format: ADME; details: brain and plasma
Rattus norvegicus [12] = assay: Agonist activity at rat mGluR2 assessed as decrease in spontaneous locomotor activity at 10 mg/kg, sc after 30 mins; format: functional, organism-based; parameters: dose 10 mg/kg
Rattus norvegicus [13] = assay: Agonist activity at rat mGluR3 assessed as decrease in spontaneous locomotor activity at 10 mg/kg, sc after 30 mins; format: functional, organism-based; parameters: dose 10 mg/kg
Rattus norvegicus [14] = assay: Antagonist activity at rat mGluR2 assessed as inhibition of LY354740-induced hypoactivity at 10 mg/kg, po; format: functional, organism-based; parameters: dose 10 mg/kg
Rattus norvegicus [15] = assay: Antagonist activity at rat mGluR3 assessed as inhibition of LY354740-induced hypoactivity at 10 mg/kg, po; format: functional, organism-based; parameters: dose 10 mg/kg
Rattus norvegicus [16] = species: Rattus norvegicus; assay: Induction of working memory impairment in rat by DMTP test; format: functional, organism-based
Rattus norvegicus [17] = species: Rattus norvegicus; assay: Amnesic activity in rat assessed as missed trials by DMTP test; format: functional, organism-based
Rattus norvegicus [18] = species: Rattus norvegicus; assay: Amnesic activity in rat assessed as latency to response by DMTP test; format: functional, organism-based
Rattus norvegicus [19] = assay: Antiamnesic activity in rat assessed as partial inhibition of LY354740-induced impairment of working memory at 3 mg/kg, po by DMTP test; format: functional, organism-based; parameters: dose 3 mg/kg
Rattus norvegicus [20] = species: Rattus norvegicus; assay: Antiamnesic activity in rat assessed as inhibition of LY354740-induced impairment of working memory by DMTP test; format: functional, organism-based
Rhesus monkey = assay: Induction of working memory impairment in Rhesus monkey by DMTP test; format: functional, organism-based; details: Macaca mulatta
Homo sapiens = species: Homo sapiens; assay: Induction of cognitive impairment in human; format: functional, organism-based
Rattus norvegicus [21] = assay: Antiamnesic activity in rat assessed as partial reversal of scopolamine-induced impairment of working memory at 3 mg/kg, po by DMTP test; format: functional, organism-based; parameters: dose 3 mg/kg
Rattus norvegicus [22] = assay: Antiamnesic activity in rat assessed as partial reversal of scopolamine-induced impairment of working memory at 0.06 mg/kg, sc by DMTP test; format: functional, organism-based; parameters: dose 0.06 mg/kg
Rattus norvegicus [23] = assay: Neurotoxicity in rat assessed as antidepressant-like activity at 1 mg/kg after 35 to 180 mins, po; format: toxicity, organism-based; parameters: dose 1 mg/kg, route oral; details: in vivo
Rattus norvegicus [24] = assay: Neurotoxicity in rat assessed as locomotor activity upto 30 mg/kg, po by rotarod test; format: toxicity, organism-based; parameters: dose 30 mg/kg, route oral; details: in vivo
Rattus norvegicus [25] = assay: Neurotoxicity in rat assessed as effect on grip strength upto 30 mg/kg, po; format: toxicity, organism-based; parameters: dose 30 mg/kg, route oral; details: in vivo
Rattus norvegicus [26] = assay: Neurotoxicity in rat assessed as effect on spontaneous locomotor activity upto 30 mg/kg, po; format: toxicity, organism-based; parameters: dose 30 mg/kg, route oral; details: in vivo
Rattus norvegicus [27] = assay: Antiamnesic activity in rat assessed as partial inhibition of LY354740-induced impairment of working memory at 10 mg/kg, po by DMTP test; format: functional, organism-based; parameters: dose 10 mg/kg

Sequence of Metabotropic glutamate receptor 3 (P31422 whole entry): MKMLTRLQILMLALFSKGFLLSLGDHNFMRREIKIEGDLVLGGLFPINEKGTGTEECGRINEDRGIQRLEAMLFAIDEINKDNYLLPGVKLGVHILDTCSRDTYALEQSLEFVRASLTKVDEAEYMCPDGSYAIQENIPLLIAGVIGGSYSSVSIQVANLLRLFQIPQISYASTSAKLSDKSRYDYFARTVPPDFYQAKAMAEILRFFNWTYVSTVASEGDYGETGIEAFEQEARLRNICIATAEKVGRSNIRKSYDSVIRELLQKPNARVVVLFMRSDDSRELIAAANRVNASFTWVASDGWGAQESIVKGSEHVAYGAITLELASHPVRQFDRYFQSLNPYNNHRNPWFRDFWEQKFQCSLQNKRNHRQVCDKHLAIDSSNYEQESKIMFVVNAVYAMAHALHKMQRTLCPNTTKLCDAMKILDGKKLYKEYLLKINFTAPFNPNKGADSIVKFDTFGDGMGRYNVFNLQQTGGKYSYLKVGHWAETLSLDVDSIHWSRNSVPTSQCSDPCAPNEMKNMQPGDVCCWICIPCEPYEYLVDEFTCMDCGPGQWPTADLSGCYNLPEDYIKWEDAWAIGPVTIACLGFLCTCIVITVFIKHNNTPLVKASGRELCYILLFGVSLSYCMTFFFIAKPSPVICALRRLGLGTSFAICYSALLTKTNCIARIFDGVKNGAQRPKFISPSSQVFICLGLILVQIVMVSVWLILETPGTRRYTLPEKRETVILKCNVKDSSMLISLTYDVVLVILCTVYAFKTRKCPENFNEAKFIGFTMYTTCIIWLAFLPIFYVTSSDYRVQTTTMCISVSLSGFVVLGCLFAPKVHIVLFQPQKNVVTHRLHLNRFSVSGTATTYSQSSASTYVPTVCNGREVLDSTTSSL
T1 sequence (P31421 whole entry): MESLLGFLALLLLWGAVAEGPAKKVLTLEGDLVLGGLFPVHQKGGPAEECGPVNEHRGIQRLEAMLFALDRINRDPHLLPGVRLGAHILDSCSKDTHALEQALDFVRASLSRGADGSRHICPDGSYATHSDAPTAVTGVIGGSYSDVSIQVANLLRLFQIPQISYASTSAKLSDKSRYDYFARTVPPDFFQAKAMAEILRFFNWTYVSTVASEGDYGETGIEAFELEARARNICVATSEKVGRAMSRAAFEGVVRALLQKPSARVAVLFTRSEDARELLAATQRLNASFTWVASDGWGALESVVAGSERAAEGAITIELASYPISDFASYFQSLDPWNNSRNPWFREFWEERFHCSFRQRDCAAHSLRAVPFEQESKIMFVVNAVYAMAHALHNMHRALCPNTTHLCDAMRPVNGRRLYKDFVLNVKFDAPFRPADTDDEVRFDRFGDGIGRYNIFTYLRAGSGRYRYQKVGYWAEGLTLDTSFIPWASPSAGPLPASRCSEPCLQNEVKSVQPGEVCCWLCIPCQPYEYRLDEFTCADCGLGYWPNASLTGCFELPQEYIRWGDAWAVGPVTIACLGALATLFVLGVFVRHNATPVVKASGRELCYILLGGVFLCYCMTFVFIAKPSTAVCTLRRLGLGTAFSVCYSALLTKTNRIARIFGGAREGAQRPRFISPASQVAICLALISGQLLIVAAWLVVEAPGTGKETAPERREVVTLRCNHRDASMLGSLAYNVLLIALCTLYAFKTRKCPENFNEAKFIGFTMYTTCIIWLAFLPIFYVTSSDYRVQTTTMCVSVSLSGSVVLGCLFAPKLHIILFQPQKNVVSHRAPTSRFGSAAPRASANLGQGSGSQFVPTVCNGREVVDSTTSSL
Sequence of Metabotropic glutamate receptor 2 (Homo sapiens, UniProt Q14416) (Q14416 whole entry): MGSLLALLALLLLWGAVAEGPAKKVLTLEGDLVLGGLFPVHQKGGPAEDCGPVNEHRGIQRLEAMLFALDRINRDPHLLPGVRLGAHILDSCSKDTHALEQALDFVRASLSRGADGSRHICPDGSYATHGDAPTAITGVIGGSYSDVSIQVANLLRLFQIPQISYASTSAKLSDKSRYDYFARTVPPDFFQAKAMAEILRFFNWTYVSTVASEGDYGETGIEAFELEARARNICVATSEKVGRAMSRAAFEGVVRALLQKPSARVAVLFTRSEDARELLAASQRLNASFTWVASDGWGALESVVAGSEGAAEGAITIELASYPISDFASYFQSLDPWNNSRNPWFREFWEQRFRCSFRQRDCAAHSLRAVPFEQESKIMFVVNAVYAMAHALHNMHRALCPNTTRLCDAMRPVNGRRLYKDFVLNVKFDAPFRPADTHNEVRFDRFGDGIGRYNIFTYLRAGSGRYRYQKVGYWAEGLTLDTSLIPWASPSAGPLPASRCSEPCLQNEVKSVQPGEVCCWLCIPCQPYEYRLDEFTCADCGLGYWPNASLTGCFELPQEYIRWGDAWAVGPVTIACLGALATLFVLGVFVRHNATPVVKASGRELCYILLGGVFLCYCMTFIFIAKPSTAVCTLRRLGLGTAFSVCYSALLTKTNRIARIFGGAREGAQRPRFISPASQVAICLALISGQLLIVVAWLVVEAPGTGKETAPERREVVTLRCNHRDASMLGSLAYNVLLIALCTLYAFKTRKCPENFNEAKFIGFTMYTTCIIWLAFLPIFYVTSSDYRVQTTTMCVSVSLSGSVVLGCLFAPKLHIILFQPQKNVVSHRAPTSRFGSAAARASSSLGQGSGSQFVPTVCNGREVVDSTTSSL
Sequence of Cytochrome P450 3A4 (P08684 whole entry): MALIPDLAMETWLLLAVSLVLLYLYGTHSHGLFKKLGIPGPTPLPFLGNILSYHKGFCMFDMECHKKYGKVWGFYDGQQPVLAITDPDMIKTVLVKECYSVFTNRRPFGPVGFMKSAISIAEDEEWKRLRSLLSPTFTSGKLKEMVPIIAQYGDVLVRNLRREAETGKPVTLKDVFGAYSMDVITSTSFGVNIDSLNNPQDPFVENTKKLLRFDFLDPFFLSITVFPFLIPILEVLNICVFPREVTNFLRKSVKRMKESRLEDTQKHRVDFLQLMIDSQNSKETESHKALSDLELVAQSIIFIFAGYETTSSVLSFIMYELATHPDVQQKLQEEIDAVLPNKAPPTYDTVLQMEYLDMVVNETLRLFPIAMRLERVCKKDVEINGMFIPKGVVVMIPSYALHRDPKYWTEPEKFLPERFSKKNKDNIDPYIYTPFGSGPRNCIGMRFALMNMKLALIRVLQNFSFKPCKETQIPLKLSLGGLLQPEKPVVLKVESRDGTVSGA

SMILES: Cc1cc2c(cc1C(F)(F)F)NC(=O)CC(c1cccc(-n3nncc3CO)c1)=N2
IC50 [1]: 120 nM

SMILES: Cc1cc2c(cc1C(F)(F)F)NC(=O)CC(c1cccc(-c3ccnc(Cc4ccccc4)c3)c1)=N2
IC50 [1]: 16 nM
IC50 [2]: 5 nM

SMILES: Cc1cc2c(cc1C(F)(F)F)NC(=O)CC(c1cccc(-c3ccc(N(C)C)nc3)c1)=N2
IC50 [1]: 86 nM

SMILES: Cc1cc(-c2cccc(C3=Nc4ccc(C(F)(F)F)cc4NC(=O)C3)c2)ccn1
IC50 [1]: 18 nM
IC50 [2]: 36 nM
IC50 [4]: 17 nM
IC50 [5]: 25 nM

SMILES: COCc1cc(-c2cccc(C3=Nc4cc(C)c(C(F)(F)F)cc4NC(=O)C3)c2)cc(C)n1
IC50 [1]: 8 nM
IC50 [2]: 5 nM

SMILES: CCc1cc(-c2cccc(C3=Nc4cc(C)c(C(F)(F)F)cc4NC(=O)C3)c2)cc(C)n1
IC50 [1]: 2 nM
IC50 [2]: 4 nM

SMILES: Cc1cc2c(cc1C(F)(F)F)NC(=O)CC(c1cccc(-c3cccnn3)c1)=N2
IC50 [1]: 128 nM

SMILES: Cc1cc2c(cc1C(F)(F)F)NC(=O)CC(c1cccc(-c3ccnc(C(F)(F)F)c3)c1)=N2
IC50 [1]: 66 nM

SMILES: Cc1nc(-c2cccc(C3=Nc4ccc(C(F)(F)F)cc4NC(=O)C3)c2)co1
IC50 [1]: 350 nM

SMILES: CCOc1cc2c(cc1C(F)(F)F)NC(=O)CC(c1cccc(-c3ccnc(C)c3)c1)=N2
IC50 [1]: 6 nM
IC50 [2]: 8 nM
IC50 [4]: 3 nM
IC50 [5]: 15 nM

SMILES: Cc1cc2c(cc1C(F)(F)F)NC(=O)CC(c1cccc(-c3cccnc3)c1)=N2
IC50 [1]: 2 nM
IC50 [2]: 3 nM
IC50 (Cytochrome P450 3A4): 1800 nM

SMILES: Cc1cc(-c2cccc(C3=Nc4cc(C)c(C(F)(F)F)cc4NC(=O)C3)c2)ccn1
IC50 [1]: 4 nM
IC50 [2]: 4 nM
IC50 (Cytochrome P450 3A4): 1900 nM
solubility thermodynamic [6]: 45 µg/mL (≈ 110 µM)
CL (Liver microsomes): 0.8 mL/kg/min
IC50 [3]: 13 nM
IC50 [4]: 14 nM
IC50 [5]: 41 nM

SMILES: Cc1cc2c(cc1C(F)(F)F)NC(=O)CC(c1cccc(-c3ccnc(N4CCOCC4)c3)c1)=N2
IC50 [1]: 29 nM

SMILES: Cc1cc2c(cc1C(F)(F)F)NC(=O)CC(c1cccc(-c3ccc(N)nc3)c1)=N2
IC50 [1]: 14 nM
IC50 [2]: 160 nM

More lines, main results first:

IC50 [1]: 4 nM
IC50 [2]: 10 nM
IC50 [3]: 8 nM
IC50 [4]: 6 nM
IC50 [5]: 38 nM
SMILES: CCOc1cc2c(cc1C(F)(F)F)NC(=O)CC(c1cccc(-c3ccncc3)c1)=N2

IC50 [1]: 6 nM
IC50 [2]: 50 nM
SMILES: Cc1cc2c(cc1C(F)(F)F)NC(=O)CC(c1cccc(-c3ccncn3)c1)=N2

IC50 [1]: 40 nM
IC50 [2]: 14 nM
SMILES: Cc1cc2c(cc1C(F)(F)F)NC(=O)CC(c1cccc(-c3ccnc(C(C)(C)O)c3)c1)=N2

IC50 [1]: 39 nM
IC50 [2]: 190 nM
SMILES: Cn1nccc1-c1cccc(C2=Nc3ccc(C(F)(F)F)cc3NC(=O)C2)c1

IC50 [1]: 2 nM
IC50 [2]: 3 nM
IC50 (Cytochrome P450 3A4): 4800 nM
solubility thermodynamic [6]: 64 µg/mL (≈ 151 µM)
CL (Liver microsomes): 4.7 mL/kg/min
half-life [7]: 768 min
Vd [8]: 5.8 L/kg
clearance [9]: 5.7 mL/min/kg
bioavailability [10]: 52%
Kp [11]: 1.4
IC50 [3]: < 10 nM
IC50 [4]: < 10 nM
IC50 [5]: 14 nM
SMILES: Cc1cc(-c2cccc(C3=Nc4cc(C)c(C(F)(F)F)cc4NC(=O)C3)c2)cc(C)n1
Activity (Rattus norvegicus [12]): Dose-dependent effect
Activity (Rattus norvegicus [13]): Dose-dependent effect
Activity (Rattus norvegicus [14]): Active
Activity (Rattus norvegicus [15]): Active
Activity (Rattus norvegicus [16]): Dose-dependent effect
Activity (Rattus norvegicus [17]): Dose-dependent effect
Activity (Rattus norvegicus [18]): Dose-dependent effect
Activity (Rattus norvegicus [19]): Dose-dependent effect
Activity (Rattus norvegicus [20]): Active
Activity (Rhesus monkey): Active
Activity (Homo sapiens): Active
Activity (Rattus norvegicus [21]): Active
Activity (Rattus norvegicus [22]): Active
Activity (Rattus norvegicus [23]): Toxic
Activity (Rattus norvegicus [24]): Non-toxic
Activity (Rattus norvegicus [25]): Non-toxic
Activity (Rattus norvegicus [26]): Non-toxic
Activity (Rattus norvegicus [27]): Active

IC50 [1]: 18 nM
IC50 [2]: 72 nM
SMILES: Cc1cc2c(cc1C(F)(F)F)NC(=O)CC(c1cccc(-c3ccnnc3)c1)=N2

IC50 [1]: 5 nM
IC50 [2]: 9 nM
SMILES: Cc1cc(-c2cccc(C3=Nc4cc(C)c(C(F)(F)F)cc4NC(=O)C3)c2)on1

IC50 [1]: 2 nM
IC50 [2]: 4 nM
SMILES: Cc1cc(-c2cccc(C3=Nc4cc(C)c(C(F)(F)F)cc4NC(=O)C3)c2)cc(C2CC2)n1

IC50 [1]: 4 nM
IC50 [2]: 11 nM
IC50 (Cytochrome P450 3A4): 200 nM
solubility thermodynamic [6]: 5 µg/mL (≈ 12.6 µM)
SMILES: Cc1cc2c(cc1C(F)(F)F)NC(=O)CC(c1cccc(-c3ccncc3)c1)=N2

IC50 [1]: 20 nM
IC50 [2]: 16 nM
SMILES: Cc1cc2c(cc1C(F)(F)F)NC(=O)CC(c1cccc(-c3cnccn3)c1)=N2

IC50 (Cytochrome P450 3A4): < 100 nM
SMILES: Cc1cc2c(cc1C(F)(F)F)NC(=O)CC(c1cccc(-n3ccnc3)c1)=N2
